Results published in patent US20160120915A1, “METHODS FOR MANIPULATING IMMUNE RESPONSES BY ALTERING MICROBIOTA” (NEW YORK UNIVERSITY, priority 2013, published 2016).
Counter-ions that a name gives are not always drawn.

Key:
terminal ileum = experiment: PAT: ileal expression by qPCR in 6-week mice; format: in vivo, C57BL/6 mice; details: 6-week male mice, 3 pulses, vs control, p<0.05
[1] = tested on: CD3+CD4+ lamina propria lymphocytes; experiment: Flow cytometry of lamina propria lymphocytes for Th17-produced cytokines, 8-week STAT; format: in vivo, C57BL/6J mice; details: small and large intestine, STAT vs control
Source text: Lamina propria lymphocytes (LPL) from both small and large intestine were isolated from 8-week STAT mice (Control n=4, STAT n=4) and analyzed for intracellular, Th17-produced cytokines by flow cytometry. Plots gated on CD3+CD4+LPL. IL-17^+ and IL-22^+ cells were decreased in STAT compared to control mice in both the small and large intestine (FIG. 5).
Small and large intestines of mice were dissected, and all mesenteric fat and Peyer's patches were removed. Intestines were fileted for removal of stool, cut into 2 cm pieces, and washed with PBS. Tissues were transferred to tubes with 10 ml 1 mM DTT/PBS, shaken at RT for 10 minutes, and transferred to tubes with 30 mM EDTA and 10 mM HEPES in PBS. Intestines were then shaken at 37° C. for 20 minutes and washed in complete RPMI. The small and large intestines were digested at 37 C for 1.5 hours in 100 units/ml collagenase Type VIII (Sigma) and 150 μg/ml DNase (Sigma) in complete RPMI. Cells were filtered through a 50 micron filter, washed with 5 ml PBS, and pelleted. Cells were then resuspended in 40% Percoll (GE Healthcare), under-layed with 80% Percoll, and centrifuged at 2,200 rpm for 20 min at RT. […]
Cells were stimulated with phorbol 12-myristate 13-acetate (PMA) and ionomycin for 4 hours at 37 C with the addition of GolgiPlug (BD). […] Cells were acquired on an LSRII (BD) and analyzed with FlowJo (Tree Star, Inc.) software.

[2] = tested on: Candidatus Arthromitus (segmented filamentous bacteria, SFB); experiment: SFB relative abundance by 16S rRNA sequencing in microbiota donors; format: in vivo, C57BL6J mice; details: STAT donors, all time points
Source text: As above, mice were weaned onto normal chow at 4 weeks and switched to HFD at 6 weeks of age. Cecal microbiota was collected at 18 weeks of age and transferred to 3 to 4-week old germ-free Swiss-Webster mice, which were then housed in specific pathogen-free (SPF) conditions and fed HFD. Longitudinal fecal samples were collected and microbial communities were profiled by 16S rRNA sequencing using standard universal primers (Caporaso et al., ISMEJ 2012, 8:1621-4) at an average depth of approximately 5,800 sequences per sample.
Taxonomy was assigned based on the Green Genes May 2013 database, and the percentage of sequences classified as Candidatus Arthromitus, the candidate genus name for segmented filamentous bacteria (SFB), was calculated. […] SFB was present in all 3 control donor mice at levels >1%. SFB was undetectable in STAT donors at all time points, and in the Control donors following the switch to a HFD (8 weeks and beyond). SFB was nearly undetectable in microbiota recipients. Only one STAT-recipient mouse had SFB detected, and it was only one sequence that was classified as SFB out of 7,657 total sequences. SFB was not detected in any of the 7 Control or the other 7 STAT microbiota-recipients. […] Other microbiota taxa are thus important in the transferred phenotype.

ileal tissue = experiment: Ileal gene expression profiling by whole genome microarray, 8-week EarlySTAT; format: in vivo, C57BL/6J mice
Protocol: Ileal gene expression profiling of STAT, PAT, and control animal groups, was performed using the Affymetrix Genechip system (Affymetrix). Total RNA quality and quantity were determined using the Agilent 2100 Bioanalyser and Nanodrop ND-1000. Total RNA (100 ng) was used to prepare cDNA following the Affymetrix […] Express Kit labelling protocol (Affymetrix). Standardized array processing procedures recommended by Affymetrix were performed, including hybridization, fluidics processing and scanning of the Affymetrix MG-430 2.0 arrays. GeneSpring GX11 software (Agilent Technologies) was used to normalize the raw data (Affymetrix CEL files) by Robust Multichip Average algorithm (RMA).
997 reproducibly regulated genes were identified from ˜45,000 genes of the mouse genome by T-test (p<0.05) and fold change (≧1.2 or ≦0.8) in 8-week STAT mice (FIG. 8). DAVID analysis was performed using the regulated genes, and Gene Set Enrichment analysis (GSEA) was performed using whole gene data.

Row | Structure (SMILES) | ileal Relmβ expression (terminal ileum) | IL-17+ cells among CD3+CD4+ LPL [1] | IL-22+ cells among CD3+CD4+ LPL [1] | SFB relative abundance [2] | reproducibly regulated genes out of ~45,000 genes of the mouse genome (ileal tissue; 8-week STAT mice, T-test p<0.05 and fold change ≧1.2 or ≦0.8) | SAA1 expression in ileal tissue (microarray/GSEA) (ileal tissue; 8-week, STAT vs control)
1 | CC[C@H]1OC(=O)C[C@@H](O)[C@H](C)[C@@H](O[C@@H]2O[C@H](C)[C@@H](O[C@H]3C[C@@](C)(O)[C@@H](O)[C@H](C)O3)[C@H](N(C)C)[C@H]2O)[C@@H](CC=O)C[C@@H](C)C(=O)/C=C/C(C)=C/[C@@H]1CO[C@@H]1O[C@H](C)[C@@H](O)[C@@H](OC)[C@H]1OC [Tylosin, Tylosin tartrate] | significantly lower | – | – | – | – | –
2 | CC1(C)S[C@@H]2[C@H](NC(=O)COc3ccccc3)C(=O)N2[C@H]1C(=O)[O-].[K+] [STAT, penicillin VK] | – | decreased | decreased | undetectable | 997 | strong down-regulation
